Key:
physchem = details: buffer, pH 7.4
Caco-2 = test: Apparent permeability across human Caco-2 cells; type: ADME, cell-based
[1] = AUC in mouse at 10 mg/kg, po; type: ADME, organism-based; parameters: dose 10 mg/kg, route oral; details: plasma
[2] = Volume of distribution in mouse at 5 mg/kg, iv and 10 mg/kg, po; type: ADME, organism-based; details: in vivo
[3] = Cmax in mouse at 5 mg/kg, iv and 10 mg/kg, po; type: ADME, organism-based; details: in vivo
[4] = Ratio of drug level in brain to plasma in mouse at 5 mg/kg, iv after 1 hr; type: ADME, organism-based; parameters: dose 5 mg/kg, route intravenous
[5] = Oral bioavailability in mouse at 10 mg/kg; type: ADME, organism-based; details: in vivo
[6] = Tmax in mouse at 5 mg/kg, iv and 10 mg/kg, po; type: ADME, organism-based; details: in vivo
[7] = Drug level in mouse brain at 5 mg/kg, iv after 4 hrs; type: ADME, organism-based; parameters: dose 5 mg/kg, route intravenous; details: read-out: Drug uptake
[8] = Ratio of drug level in brain to plasma in mouse at 5 mg/kg, iv after 4 hrs; type: ADME, organism-based; parameters: dose 5 mg/kg, route intravenous
[9] = Drug level in mouse brain at 5 mg/kg, iv after 1 hr; type: ADME, organism-based; parameters: dose 5 mg/kg, route intravenous; details: read-out: Drug uptake
[10] = Ratio of AUC in brain to plasma in mouse at 5 mg/kg, iv and 10 mg/kg, po; type: ADME, organism-based
[11] = Drug level in LLC tumor bearing C57BL/6J mouse plasma at 20 mg/kg, po twice daily after 2 hrs on day 1 of administration; type: ADME, organism-based; parameters: dose 20 mg/kg, route oral
[12] = Ratio of Cmax in brain to plasma in mouse at 5 mg/kg, iv and 10 mg/kg, po; type: ADME, organism-based
[13] = Drug level in LLC tumor bearing C57BL/6J mouse brain at 20 mg/kg, po twice daily after 12 hrs on day 1 of administration; type: ADME, organism-based; parameters: dose 20 mg/kg, route oral
Brain [14] = test: Drug level in LLC tumor bearing C57BL/6J mouse brain at 5 mg/kg, po; type: ADME, organism-based; parameters: dose 5 mg/kg, route oral; details: in vivo
[15] = Drug level in LLC tumor bearing C57BL/6J mouse plasma at 20 mg/kg, po twice daily after 12 hrs on day 4 of administration; type: ADME, organism-based; parameters: dose 20 mg/kg, route oral
[16] = Drug level in LLC tumor bearing C57BL/6J mouse brain at 20 mg/kg, po twice daily after 2 hrs on day 4 of administration; type: ADME, organism-based; parameters: dose 20 mg/kg, route oral
[17] = Drug level in LLC tumor bearing C57BL/6J mouse plasma at 20 mg/kg, po twice daily after 24 hrs on day 4 of administration measured 14 hrs after last dose; type: ADME, organism-based; parameters: dose 20 mg/kg, route oral
[18] = Drug level in mouse brain at 10 mg/kg, po after 1 hr; type: ADME, organism-based; parameters: dose 10 mg/kg, route oral
[19] = Drug level in LLC tumor bearing C57BL/6J mouse brain at 20 mg/kg, po twice daily after 12 hrs on day of administration; type: ADME, organism-based; parameters: dose 20 mg/kg, route oral
[20] = Tmax in mouse brain at 5 mg/kg, iv and 10 mg/kg, po; type: ADME, organism-based
[21] = Drug level in LLC tumor bearing C57BL/6J mouse brain at 20 mg/kg, po twice daily after 24 hrs; type: ADME, organism-based; parameters: dose 20 mg/kg, route oral
[22] = Cmax in mouse brain at 5 mg/kg, iv and 10 mg/kg, po; type: ADME, organism-based
[23] = Ratio of drug level in brain to plasma in mouse at 10 mg/kg, po after 4 hrs; type: ADME, organism-based; parameters: dose 10 mg/kg, route oral
Brain [24] = test: AUC in mouse brain at 5 mg/kg, iv and 10 mg/kg, po; type: ADME, organism-based; details: in vivo
[25] = Drug level in mouse brain at 10 mg/kg, po after 4 hrs; type: ADME, organism-based; parameters: dose 10 mg/kg, route oral; details: read-out: Drug uptake
[26] = Drug level in LLC tumor bearing C57BL/6J mouse plasma at 20 mg/kg, po twice daily after 24 hrs; type: ADME, organism-based; parameters: dose 20 mg/kg, route oral
[27] = Drug level in LLC tumor bearing C57BL/6J mouse brain at 20 mg/kg, po twice daily after 24 hrs on day 4 of administration measured 14 hrs after last dose; type: ADME, organism-based; parameters: dose 20 mg/kg, route oral
[28] = Dissociation constant, pKa of the compound; type: physicochemical
[29] = Drug level in LLC tumor bearing C57BL/6J mouse plasma at 20 mg/kg, po twice daily after 12 hrs on day 1 of administration; type: ADME, organism-based; parameters: dose 20 mg/kg, route oral
[30] = Drug level in rat brain at 10 mg/kg, po after 6 hrs; type: ADME, organism-based; parameters: dose 10 mg/kg, route oral; details: read-out: Drug uptake
Brain [31] = test: AUC in rat brain at 10 mg/kg, po; type: ADME, organism-based; parameters: dose 10 mg/kg, route oral; details: in vivo
[32] = Drug level in LLC tumor bearing C57BL/6J mouse brain at 20 mg/kg, po twice daily after 2 hrs on day 1 of administration; type: ADME, organism-based; parameters: dose 20 mg/kg, route oral
[33] = Drug level in LLC tumor bearing C57BL/6J mouse plasma at 20 mg/kg, po twice daily after 2 hrs on day 4 of administration; type: ADME, organism-based; parameters: dose 20 mg/kg, route oral
[34] = Ratio of drug level in brain to plasma in mouse at 10 mg/kg, po after 1 hr; type: ADME, organism-based; parameters: dose 10 mg/kg, route oral; details: brain and plasma

A logD (physchem) of 2.4 and a Papp (Caco-2) of 3 ×10⁻⁶ cm/s were found for Cc1ccc(N2CCN(C(=O)[C@H](C)Cc3ccc(Cl)cc3)CC2)c([C@@H](NC(=O)CCN)C(C)C)c1 in this work.

A logD (physchem) of 2.5 and a Papp (Caco-2) of 3 ×10⁻⁶ cm/s were found for CNCCN[C@H](c1cc(C)ccc1N1CCN(C(=O)[C@H](C)Cc2ccc(Cl)cc2F)CC1)C(C)C in this work.

An AUC [1] of 2290 ng·h/mL, a Vd [2] of 3 L/kg and a Cmax [3] of 632 ng/mL were found for CNCC(=O)N[C@H](c1cc(C)ccc1N1CCN(C(=O)[C@H](C)Cc2ccc(Cl)cc2F)CC1)C(C)C in this work. It also gave a Kp at 1 h [4] of 0.1, a bioavailability [5] of 30% and a Tmax [6] of 120 min. For the same compound, the logD (physchem) was 4, the Papp (Caco-2) was 8 ×10⁻⁶ cm/s and the concentration at 4 h [7] was 42 ng/g. The Kp at 4 h [8] was 0.2 and the concentration at 1 h [9] was 59 ng/g.

A logD (physchem) of 4 and a Papp (Caco-2) of 16 ×10⁻⁶ cm/s were found for Cc1ccc(N2CCN(C(=O)[C@H](C)Cc3ccc(Cl)cc3C)CC2)c([C@@H](NC(=O)CCN(C)C)C(C)C)c1 in this work.

A logD (physchem) of 2.7 and a Papp (Caco-2) of 12 ×10⁻⁶ cm/s were found for CNCCC(=O)N[C@H](c1cc(C)ccc1N1CCN(C(=O)[C@H](C)Cc2ccc(Cl)cc2)CC1)C(C)C in this work.

A Kp [10] of 0.15, a concentration at 2 h [11] of 360 ng/mL and a Kp [12] of 0.1 were found for Cc1ccc(N2CCN(C(=O)[C@H](C)Cc3ccc(Cl)cc3)CC2)c([C@@H](NC(=O)CCN(C)C)C(C)C)c1 in this work. For the same compound, the concentration at 12 h [13] was 74 ng/g, the Drug uptake (Brain [14]) was 2 ng/mL and the Vd [2] was 4.1 L/kg. The concentration at 12 h [15] was 405 ng/mL, the concentration at 2 h [16] was 36 ng/g and the Kp at 1 h [4] was 0.1. The concentration at 14 h [17] was 22 ng/mL, the concentration at 1 h [18] was 19 ng/g and the concentration at 12 h [19] was 25 ng/g. The Tmax [20] was 18 min, the concentration at 24 h [21] was 11 ng/g and the logD (physchem) was 3.4. It also gave a Cmax [22] of 91 ng/g, a Papp (Caco-2) of 41 ×10⁻⁶ cm/s and a Kp at 4 h [23] of 0.1. It also gave an AUC (Brain [24]) of 367 ng·h/g, a concentration at 4 h [25] of 18 ng/g and a concentration at 24 h [26] of 140 ng/mL. The Kp at 4 h [8] was 0.1, the concentration at 14 h [27] was 4.5 ng/g and the pKa [28] was 8.9. The concentration at 12 h [29] was 430 ng/mL, the concentration at 6 h [30] was 41 ng/g and the AUC (Brain [31]) was 254 ng·h/g. The concentration at 2 h [32] was 27 ng/g, the concentration at 2 h [33] was 460 ng/mL and the Kp at 1 h [34] was 0.1.

An AUC [1] of 208 ng·h/mL, a Vd [2] of 11 L/kg and a Cmax [3] of 55 ng/mL were found for CNCC(=O)N[C@H](c1cc(Cl)ccc1N1CCN(C(=O)[C@H](C)Cc2ccc(Cl)cc2OC)CC1)C(C)C in this work. The Kp at 1 h [4] was 1.3, the bioavailability [5] was 8% and the Tmax [6] was 30 min. It also gave a logD (physchem) of 3.5, a concentration at 4 h [7] of 102 ng/g and a Kp at 4 h [8] of 1.3. For the same compound, the concentration at 1 h [9] was 334 ng/g.

An AUC [1] of 397 ng·h/mL, a Vd [2] of 16 L/kg and a Cmax [3] of 143 ng/mL were found for COc1cc(Cl)ccc1C[C@@H](C)C(=O)N1CCN(c2ccc(Cl)cc2[C@@H](NC(=O)[C@@H](C)N)C(C)C)CC1 in this work. The Kp at 1 h [4] was 0.4, the bioavailability [5] was 16% and the Tmax [6] was 15 min. It also gave a logD (physchem) of 4.5, a Papp (Caco-2) of 3 ×10⁻⁶ cm/s and a concentration at 4 h [7] of 59 ng/g. For the same compound, the Kp at 4 h [8] was 1 and the concentration at 1 h [9] was 95 ng/g.
